Counter-ions that a name gives are not always drawn.
Legend:
[1] = target: T1, human ROCK-1 kinase domain (1 to 477 amino acids) (Homo sapiens, UniProt Q13464); assay: Rho kinase inhibitory activity (inhibitory activity on human Rho kinase); assay type: biochemical; settings: recombinant His-tagged human ROCK-1 kinase domain, histone substrate, 1 μM [32P]ATP, room temperature 20 min
T1 construct: a vector that expresses the kinase domain (1 to 477 amino acids) of the ROCK-1 protein; His-Tag (6xHis); made in house; host or cells: Sf9 insect cells, recombinant baculovirus (pBAC-1 vector)
Method: Rho Kinase Inhibitory Activity (Inhibitory Activity on Human Rho Kinase)
Human Rho kinase was prepared as follows. Using the following primer prepared based on the human ROCK-1 cDNA sequence reported by Ishizaki et al. (T. Ishizaki et al. EMBO J. 15, 1885-1893, 1996) and Human Placenta cDNA (Clontech, Lot. 7030086) as a template, PCR amplification was carried out.
The amplified DNA fragment was digested with Sac I and Not I, and inserted into the Sac I/Not I site of a commercially available vector for insect cell expression, pBAC-1 (Novagenn), whereby a […] human ROCK-1 protein expression vector was prepared. […]
A reaction mixture (total amount 100 μl) containing 20 mM (N-morpholino)propanesulfone acid-NaOH (pH 7.2), 0.1 mg/ml bovine serum albumin, 5 mM dithiothreitol, 10 mM β-glycerophosphoric acid, 50 μM sodium vanadate, 10 mM magnesium chloride, 1 μM [^32P] […] Then, the radioactivity incorporated into the substrate was measured using a liquid scintillation counter. […]

T1 sequence (Q13464 1-477): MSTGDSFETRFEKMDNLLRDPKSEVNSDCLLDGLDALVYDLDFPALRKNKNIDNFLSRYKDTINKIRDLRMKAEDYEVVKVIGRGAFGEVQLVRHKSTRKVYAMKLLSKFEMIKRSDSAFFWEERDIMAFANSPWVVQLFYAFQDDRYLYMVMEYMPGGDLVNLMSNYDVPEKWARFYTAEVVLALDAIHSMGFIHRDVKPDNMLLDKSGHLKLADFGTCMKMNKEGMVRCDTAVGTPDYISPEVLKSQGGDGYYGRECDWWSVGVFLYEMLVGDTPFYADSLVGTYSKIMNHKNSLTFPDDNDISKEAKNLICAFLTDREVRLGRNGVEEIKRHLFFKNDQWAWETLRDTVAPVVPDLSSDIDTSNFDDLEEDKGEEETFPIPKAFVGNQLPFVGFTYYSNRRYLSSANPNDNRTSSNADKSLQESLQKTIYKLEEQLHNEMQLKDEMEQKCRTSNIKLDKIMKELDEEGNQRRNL

melting point	IC50 [1]	SMILES
> 230 °C (dec.)	–	NC1CCS(=O)(=O)c2cc(C(=O)Nc3ccncc3)ccc21 (stereo not drawn) (as salt: HCl) (hydrate or solvate) [Example 1, 4-amino-N-(4-pyridyl)thiochromane-7-carboxamide 1,1-dioxide]
> 280 °C (dec.)	–	NC1CCSc2cc(C(=O)Nc3ccncc3)ccc21 (stereo not drawn) (as salt: HCl) [Example 2, 4-amino-N-(4-pyridyl)thiochromane-7-carboxamide]
> 260 °C (dec.)	–	N[C@H]1CCSc2cc(C(=O)Nc3ccncc3)ccc21 (as salt: HCl) (hydrate or solvate) [Example 10, (S)-4-amino-N-(4-pyridyl)thiochromane-7-carboxamide]
> 250 °C (dec.)	–	N[C@@H]1CCS(=O)(=O)c2cc(C(=O)Nc3ccncc3)ccc21 (as salt: HCl) (hydrate or solvate) [Example 7, (R)-4-amino-N-(4-pyridyl)thiochromane-7-carboxamide 1,1-dioxide]
–	13 nM	N[C@H]1CCSc2cc(C(=O)Nc3ccncc3)ccc21 [Example 10, (S)-4-amino-N-(4-pyridyl)thiochromane-7-carboxamide]
> 275 °C (dec.)	–	N[C@@H]1CCS(=O)(=O)c2cc(C(=O)Nc3ccncc3)ccc21 (as salt: HCl) (hydrate or solvate) [Example 6, (R)-4-amino-N-(4-pyridyl)thiochromane-7-carboxamide 1,1-dioxide]
